Data published in patent US11419335B2, “N-arylated analogues and uses thereof” (University of Florida Research Foundation, Incorporated, priority 2016, dated 2022).
Read-outs that look alike come from different tables or passages of the source. Each block holds one compound with its values, some of them ahead of it.

Assays:
[1] = system: methicillin-resistant Staphylococcus aureus MRSA-2 (clinical isolate); experiment: MIC broth microdilution, MRSA-2; format: cell-based; conditions: for MIC: read-out: MIC MRSA-2
Method: (§1) The minimum inhibitory concentration (MIC) for each tested compound was determined by the broth microdilution method as recommended by the Clinical and Laboratory Standards Institute (CLSI). In a 96-well plate, eleven two-fold serial dilutions of each compound were made in a final volume of 100 μL Luria Broth. Each well was inoculated with ˜10^5 bacterial cells at the initial time of incubation, prepared from a fresh log phase culture (OD600 of 0.5 to 1.0 depending on bacterial strain). The MIC was defined as the lowest concentration of compound that prevented bacterial growth after incubating 16 to 18 hours at 37° C. (MIC values were supported by spectrophotometric readings at OD600). DMSO served as our vehicle and negative control in each microdilution MIC assay. DMSO was serially diluted with a top concentration of 1% v/v.
as §1, with “for each compound was” for “for each tested compound was”, “Standards Institute (CLSI).^6 In a” for “Standards Institute (CLSI). In a”, “concentration of test compound that” for “concentration of compound that”, “37° C. The concentration range tested for each compound during this study was 0.10 to 100 μM. DMSO served” for “37° C. (MIC values were supported by spectrophotometric readings at OD600). DMSO served”, “1% v/v. All MIC values were obtained from a minimum of three independent experiments.” for “1% v/v.”

MRSA BAA-1707 = experiment: MIC broth microdilution, MRSA BAA-1707; format: cell-based, Staphylococcus aureus
Method: as §1, with “The MIC was defined as the lowest concentration of compound that prevented bacterial growth after incubating 16 to 18 hours at 37° C.” left out
(§2) Each well was inoculated with ˜10^5 bacterial cells at the initial time of incubation, prepared from a fresh log phase culture (OD600 of 0.5 to 1.0 depending on bacterial strain). […] The concentration range tested for each compound during this study was 0.10 to 100 μM. DMSO served as our vehicle and negative control in each microdilution MIC assay. DMSO was serially diluted with a top concentration of 1% v/v. All MIC values were obtained from a minimum of three independent experiments.

[2] = system: methicillin-resistant Staphylococcus epidermidis (MRSE strain ATCC 35984); experiment: MIC broth microdilution, MRSE 35984; format: cell-based; conditions: Table 4
Method: as §1
as §1, with “for each compound was” for “for each tested compound was”, “Standards Institute (CLSI).^6 In a” for “Standards Institute (CLSI). In a”, “concentration of test compound that” for “concentration of compound that”, “37° C. The concentration range tested for each compound during this study was 0.10 to 100 μM. DMSO served” for “37° C. (MIC values were supported by spectrophotometric readings at OD600). DMSO served”, “1% v/v. All MIC values were obtained from a minimum of three independent experiments.” for “1% v/v.”

[3] = system: vancomycin-resistant Enterococcus faecium (VRE strain ATCC 700221); experiment: MIC broth microdilution, VRE 700221; format: cell-based; conditions: Table 4
Method: as §1
as §1, with “for each compound was” for “for each tested compound was”, “Standards Institute (CLSI).^6 In a” for “Standards Institute (CLSI). In a”, “concentration of test compound that” for “concentration of compound that”, “37° C. The concentration range tested for each compound during this study was 0.10 to 100 μM. DMSO served” for “37° C. (MIC values were supported by spectrophotometric readings at OD600). DMSO served”, “1% v/v. All MIC values were obtained from a minimum of three independent experiments.” for “1% v/v.”

[4] = system: Acinetobacter baumannii (ATCC 1794); experiment: MIC broth microdilution, A. baumannii 1794; format: cell-based; conditions: Table 4
Method: as §1
as §1, with “for each compound was” for “for each tested compound was”, “Standards Institute (CLSI).^6 In a” for “Standards Institute (CLSI). In a”, “concentration of test compound that” for “concentration of compound that”, “37° C. The concentration range tested for each compound during this study was 0.10 to 100 μM. DMSO served” for “37° C. (MIC values were supported by spectrophotometric readings at OD600). DMSO served”, “1% v/v. All MIC values were obtained from a minimum of three independent experiments.” for “1% v/v.”

[5] = system: Pseudomonas aeruginosa (PAO1); experiment: MIC broth microdilution, PAO1; format: cell-based; conditions: Table 4
Method: as §1
as §1, with “for each compound was” for “for each tested compound was”, “Standards Institute (CLSI).^6 In a” for “Standards Institute (CLSI). In a”, “concentration of test compound that” for “concentration of compound that”, “37° C. The concentration range tested for each compound during this study was 0.10 to 100 μM. DMSO served” for “37° C. (MIC values were supported by spectrophotometric readings at OD600). DMSO served”, “1% v/v. All MIC values were obtained from a minimum of three independent experiments.” for “1% v/v.”

[6] = system: Klebsiella pneumoniae (ATCC 13883); experiment: MIC broth microdilution, K. pneumoniae 13883; format: cell-based; conditions: Table 4
Method: as §1
as §1, with “for each compound was” for “for each tested compound was”, “Standards Institute (CLSI).^6 In a” for “Standards Institute (CLSI). In a”, “concentration of test compound that” for “concentration of compound that”, “37° C. The concentration range tested for each compound during this study was 0.10 to 100 μM. DMSO served” for “37° C. (MIC values were supported by spectrophotometric readings at OD600). DMSO served”, “1% v/v. All MIC values were obtained from a minimum of three independent experiments.” for “1% v/v.”

[7] = system: Escherichia coli clinical isolate (UAEC-1); experiment: MIC broth microdilution, UAEC-1; format: cell-based; conditions: Table 4
Method: as §1
as §1, with “for each compound was” for “for each tested compound was”, “Standards Institute (CLSI).^6 In a” for “Standards Institute (CLSI). In a”, “concentration of test compound that” for “concentration of compound that”, “37° C. The concentration range tested for each compound during this study was 0.10 to 100 μM. DMSO served” for “37° C. (MIC values were supported by spectrophotometric readings at OD600). DMSO served”, “1% v/v. All MIC values were obtained from a minimum of three independent experiments.” for “1% v/v.”

C. albicans SC5314 = experiment: Fungal MIC susceptibility assay, C. albicans; format: cell-based, Candida albicans; conditions: Candida albicans, SC5314; Table 4; antifungal
Method: (§3) Fungal minimum inhibition concentrations (MICs) were determined using standard microdilution methods according to the Clinical and Laboratory Standards Institute document M27-A3. The test compound concentration ranged from 0.01 to 100 μM. Amphotericin B (AmB) and itraconazole (ITC) (Fisher Scientific) were included as positive controls. DMSO, the vehicle control, was used at ≤1% v/v for these experiments. The fungal M27-A3 standard MIC assay protocol requires the following inoculum preparation protocol: The organisms were cultured onto PDA medium at 35° C. The inoculum is prepared by picking five colonies from 24-hour old culture of Candida spp. or 48-hour old culture of C. neoformans. The inoculum was suspended in 5 ml of sterile water, the resulting suspension was vortexed for 15 seconds and the cell density adjusted (by adding more sterile water) to an OD530=0.30, which yields a suspension of 1×10^6 to 5×10^6 cells per mL. The suspension was diluted 50 times and then 20 times using RPMI 1640 medium to obtain the two times test inoculum (1×10^3 to 5×10^3 cells per mL). The following steps are the same with the standard bacterial MIC protocol using 96-well plates. NOTE: RPMI 1640 medium was used in the fungal MIC assay (for both cell inoculum and compound dilution).

C. neoformans ATCC 66031 = experiment: Fungal MIC susceptibility assay, C. neoformans; format: cell-based; conditions: Cryptococcus neoformans, ATCC66031; Table 4; antifungal; read-out: MIC C. neof 66031
Method: as §3

[8] = system: methicillin-sensitive Staphylococcus aureus ATCC 29213; experiment: MIC broth microdilution, S. aureus 29213; format: cell-based
Method: as §1, with “The MIC was defined as the lowest concentration of compound that prevented bacterial growth after incubating 16 to 18 hours at 37° C.” left out
as §2

MIC ([1]; Staphylococcus aureus, MRSA, Table 4): > 100 µM
MIC (MRSA BAA-1707; Staphylococcus aureus, Table 4, read-out: MIC MRSA 1707): > 100 µM
MIC ([2]; Staphylococcus epidermidis, read-out: MIC MRSE 35984): > 100 µM
MIC ([3]; read-out: MIC VRE 700221): > 100 µM
MIC ([4]; Acinetobacter baumannii, ATCC1794, read-out: MIC A. bau. 1794): > 100 µM
MIC ([5]; Pseudomonas aeruginosa, PAO1): > 100 µM
MIC ([6]; Klebsiella pneumoniae, ATCC13883, read-out: MIC K. pneu. 13883): > 100 µM
MIC ([7]; Escherichia coli): > 100 µM
MIC (C. albicans SC5314): 50 µM
MIC (C. neoformans ATCC 66031): 25 µM
SMILES: CCCCCCCCCCCCCCCCn1cc[n+](Cc2ccc(C[n+]3ccn(CCCCCCCCCCCCCCCC)c3C)cc2)c1C [Compound 28]

SMILES: CCCCCCCCCCCCCCCCn1cc[n+](-c2ccc(Cl)cc2)c1C.[Br-] [Compound 6]
MIC ([1]; Table 1B): 3.13 µM
MIC ([1]; Table 3): 3.13 µM
MIC MRSA-2 ([1]; Table 4): 3.13 µM
MIC (MRSA BAA-1707; Table 1B, read-out: MIC MRSA BAA-1707): 3.13 µM
MIC (MRSA BAA-1707; Table 3, read-out: MIC MRSA BAA-1707): 3.13 µM
MIC MRSA 1707 (MRSA BAA-1707; Table 4): 3.13 µM
MIC MRSE 35984 [2]: 1.17a micromolar
MIC VRE 700221 [3]: 1.56 µM
MIC A. bau. 1794 [4]: 12.5 µM
MIC PAO1 [5]: >100 µM
MIC K. pneu. 13883 [6]: 6.25 µM
MIC UAEC-1 [7]: 6.25 µM
MIC ([8]; Table 1B): 3.13 µM
MIC ([8]; Table 3): 3.13 µM
